Legend:
[1] = target: T1, protein encoded in the VRER gene (Vigna radiata, UniProt Q9SQK0); assay: Biochemical characteristics of the protein encoded in the VRER gene (substrate reduction with NADPH); settings: in the presence of NADPH
T1 sequence (Q9SQK0 1-325): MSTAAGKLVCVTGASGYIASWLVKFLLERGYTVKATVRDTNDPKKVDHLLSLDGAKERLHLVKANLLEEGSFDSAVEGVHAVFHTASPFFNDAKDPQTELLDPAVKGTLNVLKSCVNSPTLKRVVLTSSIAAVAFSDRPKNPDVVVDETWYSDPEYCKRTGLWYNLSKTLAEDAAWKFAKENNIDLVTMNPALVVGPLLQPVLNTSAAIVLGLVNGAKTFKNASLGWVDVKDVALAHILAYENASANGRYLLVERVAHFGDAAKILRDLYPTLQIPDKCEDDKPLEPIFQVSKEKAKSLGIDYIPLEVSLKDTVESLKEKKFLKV
Source text: The protein encoded in the VRER gene was characterized biochemically. […] It was also investigated whether this protein was capable of reducing other substrates.

[2] = tested on: untransformed calluses (GWT); assay: Biotest II: growth of calluses on media containing eutypine; settings: 500 μM of eutypine; wildtype calluses
[3] = Viability of leaf protoplasts cultured with eutypine or eutypinol; format: cell-based, Vitis vinifera; settings: Vitis vinifera, protoplasts 4.5×10^5/ml, 48 hours, read-out: Viability after 48 hours
Protocol: (§1) The protoplasts (4.5×10^5/ml) are cultured in the presence of eutypine or eutypinol for 48 hours.

[4] = tested on: transformed calluses (GA); assay: Biotest II: growth of calluses on media containing eutypine; settings: 500 μM of eutypine; GA variety
[5] = tested on: grapevine cells; assay: Consumption of oxygen of grapevine cells; format: cell-based; settings: activation at low dose
Protocol: Eutypine affects the functioning of the membrane systems of the grapevine cells. It causes the acidification of the cytoplasm, the reduction of leucine transport, the activation at low dose of the consumption of oxygen and its inhibition above 160 μM, and a diminution of the energy load of the cells.

[6] = tested on: protoplasts of Ugni blanc; assay: Degradation of eutypine by protoplasts (detoxification activity); format: in vitro ADME, Vitis vinifera; settings: Ugni blanc (very sensitive); eutypine 100 μM, 1 hour, 30° C.
Protocol: (§2) The protoplasts (10^6/ml) obtained from leaves of vitroplants are incubated for 1 hour at 30° C. in the presence of eutypine (100 μM; 0.4 kBq). Then, the phenylacetylenic compounds are extracted, separated by thin layer chromatography and the metabolic rate of eutypine is calculated after determination of the radioactivity associated with eutypine and eutypinol.

[7] = tested on: protoplasts of Cabernet Sauvignon; assay: as above; format: in vitro ADME, Vitis vinifera; settings: Cabernet Sauvignon (sensitive); eutypine 100 μM, 1 hour, 30° C.
Protocol: as §2

[8] = tested on: protoplasts of Merlot; assay: as above; format: in vitro ADME, Vitis vinifera; settings: Merlot (tolerant); eutypine 100 μM, 1 hour, 30° C.
Protocol: as §2

[9] = tested on: mitochondria; assay: Decoupling of oxidative phosphorylation in mitochondria; format: biochemical
Protocol: The mode of action of eutypine was confirmed by investigating its effects on the functioning of mitochondria. Eutypine acts as a decoupling agent of oxidative phosphorylation. The complete decoupling of the mitochondria is attained at concentrations of eutypine close to 150 μM.

[10] = tested on: grapevine vitroplants; assay: Application of eutypine to grapevine vitroplants; format: in vivo
[11] = tested on: untransformed (UBWT) calluses of Vitis vinifera cv Ugni blanc; assay: Biotest II: development of calluses in the presence of eutypine; format: cell-based
Protocol: (§3) The transformation experiments were also performed on calluses of Vitis vinifera cv Ugni blanc by making use of the same experimental protocol as that used for the transformation of the calluses of Vitis vinifera cv. Gamay.
(§4) The analysis of the behaviour of the calluses of Vitis vinifera cv Ugni blanc towards eutypine was performed by using biotest II.

[12] = tested on: transformed (UBT) calluses of Vitis vinifera cv Ugni blanc; assay: as above; format: cell-based
Protocol: as §3, §4

[13] = tested on: grapevine cells; assay: Penetration of eutypine into grapevine cells; format: cell-based
Source text: The investigation of the mode of action of eutypine in the grapevine cells was made possible owing to the availability of eutypine in the unlabelled form and in the radioactive form, labelled with carbon 14.
This toxic molecule then accumulates in the cytoplasm by an acid trapping mechanism and, owing to its lipophilic character, inserts itself into the lipids of the membranes.

[14] = tested on: transformed (GA, GB, GC, GD) grapevine cells; assay: Biotest I: mortality of grapevine cells in suspension with eutypine (erythrosine); format: cell-based, Vitis vinifera cv Gamay
Protocol: (§5) In the biotest I, the percentage of dead cells was estimated by means of the erythrosine reagent. The concentration of eutypine inducing a percentage of dead cells of 50% is determined in the wildtype strain and in the transformed varieties.

[15] = tested on: untransformed (GWT) grapevine cells; assay: as above; format: cell-based, Vitis vinifera cv Gamay; settings: GWT wildtype
Protocol: as §5

[16] = tested on: protoplasts obtained from grapevine leaves; assay: Tolerance of leaf protoplasts to eutypine; format: cell-based; settings: Cabernet Sauvignon protoplasts compared with Merlot protoplasts
Source text: the eutypine applied to simplified biological systems causes more serious symptoms in the varieties sensitive to eutypa dieback than in varieties of grapevines tolerant to this disease.

[17] = tested on: protoplasts obtained from leaves of vitroplants of Vitis vinifera cv. Cabernet Sauvignon; assay: Viability of leaf protoplasts cultured with eutypine or eutypinol; format: cell-based; settings: for Viability after 48 hours: protoplasts 4.5×10^5/ml
Protocol: as §1

[18] = tested on: eutypine reductase; assay: Conversion of eutypine to eutypinol: effect of reductase inhibitors; format: biochemical, grapevine
Source text: The conversion of eutypine to eutypinol is catalyzed by a non-membrane enzyme, which specifically requires NADPH as co-factor. Its activity is reduced by reductase inhibitors such as disulfiram and parahydroxymercuribenzoic acid, confirming its membership of this group of enzymes. It has been called “eutypine reductase”. The reaction scheme is shown below. [drawing 2]

[19] = Reduction of eutypine by lysate of E. coli overexpressing the VRER protein; format: biochemical, Vigna radiata; settings: NADPH, radioactive eutypine, thin layer chromatography
Source text: For that, the complementary DNA of the VRER gene was cloned in an expression vector, then transferred into the bacteria. The lysate of these bacteria which overexpress the protein corresponding to the VRER gene uses the co-factor NADPH to reduce eutypine.

In the case of `CCCCCC=O` [hexanal], the “reduction by the ER protein” value [1] is reported as “reduced”.

For `CCCCCCCCCC=O` [decylaldehyde], the “reduction by the ER protein” value [1] was “reduced”.

For `O=Cc1ccncc1` [4-pyridine carbaldehyde], the “reduction by the ER protein” value [1] was “reduced”.

For `C=C(C)C#Cc1cc(C=O)ccc1O` [Eutypine, 4-hydroxy-3-(3-methylbut-3-en-1-ynyl) benzaldehyde], the development of calluses [2] was “do not develop”, the viability at 48 h, 100 µM ([3]; 100 μM) was 67% and the viability at 48 h, 200 µM ([3]; 200 μM) was 0%. The development of calluses [4] was “does not exhibit necroses”, the “concentration for inhibition of the consumption of oxygen” value [5] was “above 160 μM” and the Detoxification activity [6] was 7.9 pmol/min/10^5 cells. The Detoxification activity [7] was 10.1 pmol/min/10^5 cells, the Detoxification activity [8] was 13.6 pmol/min/10^5 cells and the “concentration for complete decoupling of the mitochondria” value [9] was ~150 µM. The “symptoms of the disease” value ([10]; applied to grapevine vitroplants) was “reproduces certain symptoms of the disease”, the “ultrastructural alterations in the leaves” value ([10]; leaves of vitroplants) was “induces ultrastructural alterations” and the “Mean mass of a callus” value ([11]; 500 μM of eutypine, UBWT) was 25 mg. For the same molecule, the development of calluses ([11]; 500 μM, wildtype variety) was “necrose rapidly and do not develop”, the “Mean mass of a callus” value ([12]; 500 μM of eutypine, UBT) was 150 mg and the “growth of the calluses” value ([12]; 500 μM, transformed UB variety) was “practically unaffected”. For the same molecule, the “penetration into the grapevine cells” value [13] was “passive diffusion”, the “LD50 (eutypine concentration causing the mortality of 50%)” value ([14]; GA transformed cells in suspension) was 255 µM and the “LD50 (eutypine concentration causing the mortality of 50%)” value ([14]; GB transformed cells in suspension) was 250 µM. The “LD50 (eutypine concentration causing the mortality of 50%)” value ([14]; GC transformed cells in suspension) was 230 µM, the “LD50 (eutypine concentration causing the mortality of 50%)” value ([14]; GD transformed cells in suspension) was 225 µM and the “LD50 (eutypine concentration causing the mortality of 50%)” value [15] was 100 µM. For the same molecule, the “tolerance of protoplasts to eutypine” value [16] was “lower tolerance”.

With 2-fluoraldehyde the “reduction by the ER protein” value [1] was “reduced”.

In the case of `C=C(C)C#Cc1cc(CO)ccc1O` [Eutypinol, 4-hydroxy-3-(3-methylbut-3-en-1-ynyl) benzylic alcohol], the “Viability after 48 hours” value ([17]; 200 μM) is reported as 86, the “Viability after 48 hours” value ([17]; 500 μM) is reported as 83 and the “toxicity to the grapevine” value ([17]; even at high concentrations) is reported as “does not show toxicity”.

With `O=Cc1ccccc1` [benzaldehyde] the “reduction by the ER protein” value [1] was “reduced”.

With `O=C(O)c1cc[c]([Hg][OH])cc1` [parahydroxymercuribenzoic acid] the “activity of eutypine reductase in the presence of reductase inhibitor” value [18] was “reduced”.

B1: protein corresponding to the VRER gene: polypeptide of 325 amino acids from Vigna radiata with eutypine reductase activity, SEQ ID NO. 4 (protein)
chain: T1 sequence (Q9SQK0 1-325)
With B1 the eutypine reductase activity [19] was “exhibits a “eutypine reductase” activity in vitro”.
